Laboratory results taken from ChEMBL document CHEMBL1201862, “PubChem BioAssay data set” (2004).
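The compound was tested at five concentrations on cells cultured in 96-well plates, with a 48-hour exposure period. At the GI50, growth is halved.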 The source made the active and inactive calls. Rule as the data show it: active = GI50 up to about 1.1 µM and inactive = higher. Non-standard residues stand in square brackets, D forms with d. Residues, ends and D or L forms follow the SMILES beside them. *: point of attachment. Bn2Val = CC(C)[C@@H](C(=O)*)N(Cc1ccccc1)Cc1ccccc1; NH(4-Cl-benzyl) = Clc1ccc(CN*)cc1; NMeV = CN[C@H](C(=O)O)C(C)C; dNMeA = CN[C@H](C)C(=O)O

Legend:
Assay in all cases: NCI-60 cell line screen, 48 h
A549 = tested on: A549
COLO 205 = tested on: COLO 205
DU-145 = tested on: DU-145
HCT-15 = tested on: HCT-15
MCF7 = tested on: MCF7
MDA-MB-435 = tested on: MDA-MB-435
NCI/ADR-RES = tested on: NCI/ADR-RES
OVCAR-8 = tested on: OVCAR-8
PC-3 = tested on: PC-3
SK-MEL-2 = tested on: SK-MEL-2
SK-MEL-5 = tested on: SK-MEL-5
SW-620 = tested on: SW-620
T47D = tested on: T47D
U-251 = tested on: U-251
UACC-62 = tested on: UACC-62
UO-31 = tested on: UO-31
HL-60 = tested on: HL-60
RPMI-8226 = tested on: RPMI-8226
SK-OV-3 = tested on: SK-OV-3
NCI-H522 = tested on: NCI-H522

Compound | GI50 (A549) | GI50 (COLO 205) | GI50 (DU-145) | GI50 (HCT-15) | GI50 (MCF7) | GI50 (MDA-MB-435) | GI50 (NCI/ADR-RES) | GI50 (OVCAR-8) | GI50 (PC-3) | GI50 (SK-MEL-2) | GI50 (SK-MEL-5) | GI50 (SW-620) | GI50 (T47D) | GI50 (U-251) | GI50 (UACC-62) | GI50 (UO-31) | GI50 (HL-60) | GI50 (RPMI-8226) | GI50 (SK-OV-3) | GI50 (NCI-H522)
COC(=O)c1cn(CCCC(=O)O)nn1 | > 100 µM (inactive) | > 100 µM (inactive) | > 100 µM (inactive) | > 100 µM | > 100 µM (inactive) | > 100 µM (inactive) | > 100 µM (inactive) | > 100 µM (inactive) | > 100 µM (inactive) | > 100 µM (inactive) | > 100 µM (inactive) | > 100 µM (inactive) | > 100 µM (inactive) | > 100 µM (inactive) | > 100 µM (inactive) | > 100 µM (inactive) |  |  |  | 
COc1cc(C2=C(C#N)C(N)OC3=C2COc2ccccc23)cc(OC)c1OC (stereo unspecified) | 17.5 µM (inactive) | > 100 µM (inactive) | 10.6 µM (inactive) | > 100 µM | > 100 µM (inactive) | 34.3 µM (inactive) | 25.2 µM (inactive) |  | 16.6 µM (inactive) | 28.5 µM (inactive) | 25.2 µM (inactive) | 50.1 µM (inactive) |  | 14.7 µM (inactive) | 50.4 µM (inactive) | 4.15 µM (inactive) | > 100 µM (inactive) | 46.6 µM (inactive) | 16.4 µM (inactive) | 
CCOC(=O)C12OC(OCC)(CC1(OCC)OCC)C1(CC1)C2=O (stereo unspecified) | > 100 µM (inactive) | > 100 µM (inactive) | > 100 µM (inactive) | > 100 µM | > 100 µM (inactive) | > 100 µM (inactive) | > 100 µM (inactive) | > 100 µM (inactive) | > 100 µM (inactive) | > 100 µM (inactive) | > 100 µM (inactive) | > 100 µM (inactive) |  | > 100 µM (inactive) |  | > 100 µM (inactive) |  |  | > 100 µM (inactive) | 
Cc1cc(Cl)cc2c1NC(=O)C2(O)CC(=O)c1ccco1 (stereo unspecified) | > 70.6 µM (inactive) | > 100 µM (inactive) | > 100 µM (inactive) | > 100 µM |  | 2.92 µM (inactive) | 59.7 µM (inactive) | > 78.3 µM (inactive) | > 100 µM (inactive) | > 85.9 µM (inactive) | 22.2 µM (inactive) | > 78.2 µM (inactive) | > 100 µM (inactive) | > 90.6 µM (inactive) | 31 µM (inactive) | > 100 µM (inactive) |  | 47 µM (inactive) | > 100 µM (inactive) | > 100 µM (inactive)
CCN(CC)c1ccc2cc(C(=O)Nc3ccccc3OC)c(=N)oc2c1 | 21.8 µM (inactive) | 24.8 µM (inactive) | 28.2 µM (inactive) | 19.7 µM | 16.3 µM (inactive) | 34.2 µM (inactive) | 23.7 µM (inactive) | 3.61 µM (inactive) | 11.8 µM (inactive) | 59.7 µM (inactive) | 32.1 µM (inactive) | 8.67 µM (inactive) |  | 10.1 µM (inactive) | 25.2 µM (inactive) | 0.321 µM (active) | 7.5 µM (inactive) | 15.9 µM (inactive) | 72.3 µM (inactive) | 10.4 µM (inactive)
COc1ccc2ccccc2c1C1=NC(C)(C)CO1 | > 100 µM (inactive) | > 100 µM (inactive) |  | > 100 µM |  |  |  | > 100 µM (inactive) |  | > 100 µM (inactive) | > 100 µM (inactive) | > 100 µM (inactive) |  | > 100 µM (inactive) | > 100 µM (inactive) | > 100 µM (inactive) | > 100 µM (inactive) | > 100 µM (inactive) | > 100 µM (inactive) | > 100 µM (inactive)
O=C(Nc1ccn(CCO)c(=O)n1)c1ccccc1 | > 100 µM (inactive) | > 100 µM (inactive) |  | > 100 µM |  |  |  | > 100 µM (inactive) |  | > 100 µM (inactive) | > 100 µM (inactive) | > 100 µM (inactive) |  | > 100 µM (inactive) | > 100 µM (inactive) | > 100 µM (inactive) | > 100 µM (inactive) | > 100 µM (inactive) | > 100 µM (inactive) | > 100 µM (inactive)
C=CCN(CCN(CC=C)S(=O)(=O)c1ccc(C)cc1)S(=O)(=O)c1ccc(C)cc1 | > 100 µM (inactive) | > 100 µM (inactive) | > 100 µM (inactive) | > 100 µM | > 100 µM (inactive) | > 100 µM (inactive) | > 100 µM (inactive) | > 100 µM (inactive) | > 100 µM (inactive) |  | > 100 µM (inactive) | > 100 µM (inactive) | > 100 µM (inactive) | > 100 µM (inactive) |  | > 100 µM (inactive) |  |  |  | > 100 µM (inactive)
COc1ccc2cc(Oc3ccc(Cl)cc3)c(=O)oc2c1 | > 100 µM (inactive) |  | > 100 µM (inactive) | > 100 µM | > 100 µM (inactive) |  |  | > 100 µM (inactive) | > 100 µM (inactive) |  | > 100 µM (inactive) | > 100 µM (inactive) | > 100 µM (inactive) | > 10 µM (inactive) |  | > 100 µM (inactive) | > 100 µM (inactive) | > 100 µM (inactive) |  | > 100 µM (inactive)
Cc1ccc(-c2nc3ccccc3c(=O)n2NC2OC(CO)C(O)C(O)C2O)cc1 (stereo unspecified) | > 100 µM (inactive) | > 100 µM (inactive) |  | > 100 µM |  |  |  | > 100 µM (inactive) |  | > 100 µM (inactive) | > 100 µM (inactive) | > 100 µM (inactive) |  | > 100 µM (inactive) | > 100 µM (inactive) | > 100 µM (inactive) | > 100 µM (inactive) | > 100 µM (inactive) | > 100 µM (inactive) | > 100 µM (inactive)
Cc1nn(C(=O)c2ccccc2O)c2c1C(c1ccco1)SC(=N)N2 (stereo unspecified) | 4.43 µM (inactive) | 5.83 µM (inactive) | 3.63 µM (inactive) | 3.53 µM |  | 7.29 µM (inactive) | 3.22 µM (inactive) | 3.61 µM (inactive) | 3.73 µM (inactive) | > 10 µM (inactive) |  | 5.24 µM (inactive) | 4.83 µM (inactive) | 5.28 µM (inactive) | 2.13 µM (inactive) | 5.6 µM (inactive) | 4.94 µM (inactive) | 4.43 µM (inactive) | 3.3 µM (inactive) | 
COC(=O)C(C(=O)C(N)=O)c1csc(-n2nc(-c3ccccc3)cc2-c2ccccc2)n1 (stereo unspecified) | > 31.6 µM (inactive) | 26.8 µM (inactive) |  | > 31.6 µM |  |  |  | 30.4 µM (inactive) |  | > 31.6 µM (inactive) | 28.7 µM (inactive) | 4.4 µM (inactive) |  | 24.5 µM (inactive) | > 31.6 µM (inactive) | 13.5 µM (inactive) | 26.1 µM (inactive) | > 31.6 µM (inactive) | > 31.6 µM (inactive) | 27.6 µM (inactive)
O=C(NC1CCN(Cc2ccccc2)CC1)c1ccccc1I | 31.6 µM (inactive) | 18.9 µM (inactive) | 61.9 µM (inactive) | 17.7 µM |  | 17.4 µM (inactive) | 25.7 µM (inactive) | 39.8 µM (inactive) | 23.6 µM (inactive) | 23.4 µM (inactive) | 16.9 µM (inactive) | 19.7 µM (inactive) | 22.2 µM (inactive) | 23.2 µM (inactive) | 18.5 µM (inactive) | 15.8 µM (inactive) | 38.9 µM (inactive) | 36.3 µM (inactive) | 22.4 µM (inactive) | 14.4 µM (inactive)
O=C1C2=C(CCC2)Nc2cccc3ncn1c23 | 33.7 µM (inactive) | 43.4 µM (inactive) |  | 48.1 µM |  |  |  | > 100 µM (inactive) |  | 56.5 µM (inactive) | 69.5 µM (inactive) | 70.1 µM (inactive) |  | > 100 µM (inactive) | 40.1 µM (inactive) | > 100 µM (inactive) | 15 µM (inactive) | > 100 µM (inactive) | 73.5 µM (inactive) | 69.7 µM (inactive)
CN(C)c1ccc(/C=C/C=C\c2cc(/C=C/C=C/c3ccc(N(C)C)cc3)[s+]c3ccccc23)cc1.[O-][Cl+3]([O-])([O-])[O-] | > 100 µM (inactive) | 29.3 µM (inactive) |  | 80.7 µM |  |  |  | 57.9 µM (inactive) |  | 45.2 µM (inactive) | 43.8 µM (inactive) | 63.4 µM (inactive) |  | 10 µM (inactive) | 28.2 µM (inactive) | > 100 µM (inactive) | 4.53 µM (inactive) | 55.3 µM (inactive) | 43.7 µM (inactive) | 10 µM (inactive)
O=S(=O)(/C=C/c1ccc(F)cc1)Cc1ccc(CS(=O)(=O)/C=C/c2ccc(F)cc2)cc1 | > 100 µM (inactive) | > 100 µM (inactive) |  | > 100 µM |  |  |  | > 100 µM (inactive) |  | > 100 µM (inactive) | > 100 µM (inactive) | > 100 µM (inactive) |  | > 100 µM (inactive) | > 100 µM (inactive) | > 100 µM (inactive) | > 100 µM (inactive) | > 100 µM (inactive) | > 100 µM (inactive) | > 100 µM (inactive)
CC(C)[C@H](NC(=O)[C@H](C(C)C)N(Cc1ccccc1)Cc1ccccc1)C(=O)N(C)[C@H](C(=O)N1CCC[C@H]1C(=O)N(C)[C@H](C)C(=O)NCc1ccc(Cl)cc1)C(C)C (Bn2Val-V[NMeV]P[dNMeA]-{NH(4-Cl-benzyl)}) | 4.04 µM (inactive) | 2.09 µM (inactive) | 4.11 µM (inactive) | 3.13 µM |  | 4.03 µM (inactive) | 3.32 µM (inactive) | 4.22 µM (inactive) | 2.75 µM (inactive) | 1.62 µM (inactive) | 3.89 µM (inactive) | 3.72 µM (inactive) | 3.51 µM (inactive) | 2.86 µM (inactive) | 3.32 µM (inactive) |  | 1.77 µM (inactive) | 2.69 µM (inactive) | 16.2 µM (inactive) | 2.06 µM (inactive)
